Results: the supplement of paper PMC10307832

Legend:
Experiment in all cases: relative viability (nuclei count vs DMSO), 5 days (fraction); higher = more cells survive
[1] = compound: C1CC(C2=C(C1)C3=C(N2)C=CC(=C3)Cl)C(=O)N [Selisistat] + CC1(C)CCC(c2ccc(Cl)cc2)=C(CN2CCN(c3ccc(C(=O)NS(=O)(=O)c4ccc(N[C@H](CCN5CCOCC5)CSc5ccccc5)c(S(=O)(=O)C(F)(F)F)c4)cc3)CC2)C1 [Navitoclax] (partner 0.5 µM)
Outline: (§1)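 For relative viability, nuclei counts in treated wells were divided by those in vehicle wells. Lung cancer cell lines had been pin-tool dosed in 1536-well plates the day after seeding and cultured for 5 days, then fixed and stained in one step (final 0.05% Triton X-100, 1% formaldehyde, 1 ug/ml Hoechst) and imaged at 4×. Doses were one drug alone or a fixed anchor-drug dose plus five library-drug doses (not always all listed) in √10 steps, and values are duplicate-plate medians.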

[2] = compound: C1CC(C2=C(C1)C3=C(N2)C=CC(=C3)Cl)C(=O)N [Selisistat] + CS(=O)(=O)CCNCc1ccc(-c2ccc3ncnc(Nc4ccc(OCc5cccc(F)c5)c(Cl)c4)c3c2)o1 [Lapatinib] (partner 2 µM)
Outline: as §1

[3] = compound: c1ccc2c(CCNc3ccc(Nc4ccncc4)cc3)c[nH]c2c1 [Serdemetan] + CCNC(=O)c1noc(-c2cc(C(C)C)c(O)cc2O)c1-c1ccc(CN2CCOCC2)cc1 [Luminespib] (partner 0.01 µM)
Outline: as §1

[4] = compound: c1ccc2c(CCNc3ccc(Nc4ccncc4)cc3)c[nH]c2c1 [Serdemetan] + Cc1nc(Nc2ncc(C(=O)Nc3c(C)cccc3Cl)s2)cc(N2CCN(CCO)CC2)n1 [Dasatinib] (partner 0.075 µM)
Outline: as §1

| Cell Line | relative viability ([1]; first compound 0.4 µM) | relative viability ([1]; first compound 1.265 µM) | relative viability ([1]; first compound 4 µM) | relative viability ([1]; first compound 12.65 µM) | relative viability ([1]; first compound 40 µM) | relative viability ([2]; first compound 0.4 µM) | relative viability ([2]; first compound 1.265 µM) | relative viability ([2]; first compound 4 µM) | relative viability ([2]; first compound 12.65 µM) | relative viability ([2]; first compound 40 µM) | relative viability ([3]; first compound 0.04 µM) | relative viability ([3]; first compound 0.1265 µM) | relative viability ([3]; first compound 0.4 µM) | relative viability ([3]; first compound 1.265 µM) | relative viability ([3]; first compound 4 µM) | relative viability ([4]; first compound 0.04 µM) | relative viability ([4]; first compound 0.1265 µM) | relative viability ([4]; first compound 0.4 µM) | relative viability ([4]; first compound 1.265 µM) | relative viability ([4]; first compound 4 µM) |
| --- | --- | --- | --- | --- | --- | --- | --- | --- | --- | --- | --- | --- | --- | --- | --- | --- | --- | --- | --- | --- |
| NCI-H2228 | 1.15 | 0.894 | 0.759 | 0.939 | 0.747 | 0.99 | 1.2 | 1.31 | 0.868 | 1.07 | 0.119 | 0.201 | 0.159 | 0.16 | 0.145 | 0.44 | 0.473 | 0.485 | 0.188 | 0.184 |
| HOP-62 | 1.07 | 0.905 | 1.02 | 0.934 | 1.16 | 0.974 | 1.03 | 0.96 | 0.884 | 1.14 | 0.758 | 0.915 | 0.848 | 0.666 | 0.596 | 0.561 | 0.625 | 0.636 | 0.538 | 0.567 |
| HARA | 1.17 | 1.08 | 1.17 | 1.13 | 1.22 | 0.726 | 0.691 | 0.71 | 0.778 | 0.904 | 0.767 | 0.604 | 0.606 | 0.303 | 0.199 | 0.336 | 0.28 | 0.235 | 0.185 | 0.178 |
| NCI-H838 | 1.31 | 1.2 | 1.13 | 1.12 | 1.22 | 1.09 | 0.965 | 0.627 | 0.966 | 0.958 | 0.266 | 0.319 | 0.383 | 0.2 | 0.328 | 0.291 | 0.345 | 0.272 | 0.276 | 0.273 |
| NCI-H1755 | 1.08 | 1.08 | 1 | 0.99 | 1.06 | 1.12 | 1.15 | 1.01 | 1.01 | 1.13 | 0.417 | 0.43 | 0.568 | 0.39 | 0.343 | 0.414 | 0.446 | 0.404 | 0.24 | 0.306 |
| NCI-H322M | 1.26 | 1.18 | – | 1.26 | 1.47 | 0.595 | 0.562 | – | 0.623 | 0.561 | 0.807 | 0.845 | 0.772 | 0.861 | 0.678 | 0.266 | 0.24 | 0.248 | 0.214 | 0.272 |
| NCI-H3122 | 1.01 | 1.02 | 0.935 | 1.04 | 0.961 | 1.01 | 1.01 | 0.772 | 1.05 | 1.1 | 0.0976 | 0.0835 | 0.115 | – | 0.101 | 0.827 | 0.792 | 0.919 | – | 0.782 |
| COR-L23 | 0.994 | 1.09 | 1.07 | 0.939 | 0.928 | 0.969 | 1.03 | 0.959 | 0.935 | 0.799 | 0.724 | 0.639 | 0.644 | 0.631 | 0.432 | 0.46 | 0.468 | 0.41 | 0.379 | 0.452 |
